According to US7799824B2, “Quaternary salt CCR2 antagonists” (OraPharma, Inc., priority 2004, dated 2010):

Molecular target: T1, CCR2 (Homo sapiens, UniProt P41597)
T1 sequence (P41597 1-360 isoform P41597-2): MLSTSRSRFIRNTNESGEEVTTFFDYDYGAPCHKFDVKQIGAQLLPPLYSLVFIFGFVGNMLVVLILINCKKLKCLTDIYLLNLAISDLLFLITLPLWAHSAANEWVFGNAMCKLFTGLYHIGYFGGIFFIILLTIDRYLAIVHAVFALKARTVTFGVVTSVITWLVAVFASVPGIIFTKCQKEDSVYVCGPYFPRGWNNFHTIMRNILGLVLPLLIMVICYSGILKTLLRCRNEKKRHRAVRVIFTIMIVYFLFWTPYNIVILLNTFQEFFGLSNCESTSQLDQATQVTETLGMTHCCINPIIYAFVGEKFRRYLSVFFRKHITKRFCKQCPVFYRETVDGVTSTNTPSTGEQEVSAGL
Assay: MCP-1 Receptor Binding Assay in THP-1 Cells
Settings: MCP-1 binding to CCR2; test concentration of 25 μM, unless indicated otherwise; read-out: % Inhibition Ligand Binding
Experimental: THP-1 cells were obtained from American Type Culture Collection (Manassas, Va., USA). […] The cell density was maintained between 0.5×10^6 cells/mL.
Cells were then harvested onto a filter plate, dried, and 20 μL of Microscint 20 was added to each well. Plates were counted in a TopCount NXT, Microplate Scintillation & Luminescence Counter (Perkin-Elmer Life Sciences, Inc. Boston, Mass.). Blank values (buffer only) were subtracted from all values and drug treated values were compared to vehicle treated values. 1 μM cold MCP-1 was used for nonspecific binding.

First: C[N+]1(Cc2ccc(CNC(=O)C=Cc3ccc(Cl)c(Cl)c3)cc2)CCOCC1 [Cpd 58, 4-(4-{[3-(3,4-dichloro-phenyl)-acryloylamino]-methyl}-benzyl)-4-methyl-morpholin-4-ium iodide]
Second: C[N+](C)(Cc1ccc(NC(=O)c2c(Cl)cccc2Cl)cc1)C1CCOCC1 [Cpd 12, [4-(2,6-dichloro-benzoylamino)-benzyl]-dimethyl-(tetrahydro-pyran-4-yl)-ammonium iodide]
The inhibition at 25 µM of the first is higher: 53% for the first, 38% for the second.

Going from `C[N+](C)(Cc1ccc(CNC(=O)C2=Cc3c(ccc4ccccc34)OC2)cc1)C1CCOCC1` [Cpd 141, (4-{[(3H-benzo[f]chromene-2-carbonyl)-amino]-methyl}-benzyl)-dimethyl-(tetrahydro-pyran-4-yl)-ammonium iodide] to `C[N+](C)(Cc1ccc(NC(=O)C2=Cc3cc(F)ccc3OC2)cc1)C1CCCCC1` [Cpd 123, cyclohexyl-{4-[(6-fluoro-2H-chromene-3-carbonyl)-amino]-benzyl}-dimethyl-ammonium iodide], the inhibition at 25 µM rises from -21% to 100%.

Same assay, conditions: THP-1 cells, 0.5 nM 125I labeled MCP-1, 2 hours at 30° C.; read-out: Mean Ligand Binding IC50 (inhibition of MCP-1 binding to CCR2)

`C[N+](C)(Cc1ccc(NC(=O)C2=Cc3cc(Cl)c(Cl)cc3OCC2)cc1)C1CC2CCC1C2` (stereo not drawn) [Cpd 169, bicyclo[2.2.1]hept-2-yl-{4-[(7,8-dichloro-2,3-dihydro-benzo[b]oxepine-4-carbonyl)-amino]-benzyl}-dimethyl-ammonium iodide] and `C[N+](C)(Cc1ccc(NC(=O)C2=Cc3cc(Cl)c(Cl)cc3OCC2)cc1)C1CCOCC1` [Cpd 167, {4-[(7,8-dichloro-2,3-dihydro-benzo[b]oxepine-4-carbonyl)-amino]-benzyl}-dimethyl-(tetrahydro-pyran-4-yl)-ammonium iodide] are the same in IC50: 0.24 µM for the first, 0.24 µM for the second.

`C[N+]1(Cc2ccc(NC(=O)C=Cc3ccc(Cl)c(Cl)c3)cc2)CCCCC1` [Cpd 53, 1-{4-[3-(3,4-dichloro-phenyl)-acryloylamino]-benzyl}-1-methyl-piperidinium iodide] and `C[N+](C)(Cc1ccc(CNC(=O)C=Cc2ccc(Cl)c(Cl)c2)cc1)C1CCOCC1` [Cpd 4, (4-{[3-(3,4-dichloro-phenyl)-acryloylamino]-methyl}-benzyl)-dimethyl-(tetrahydro-pyran-4-yl)-ammonium iodide] are within 1.5-fold of each other in IC50: 3.2 µM for the first, 3.1 µM for the second.

Going from `C[N+](C)(Cc1ccc(NC(=O)c2cc3cc(Cl)ccc3o2)cc1)C1CCOCC1` [Cpd 155, {4-[(5-chloro-benzofuran-2-carbonyl)-amino]-benzyl}-dimethyl-(tetrahydro-pyran-4-yl)-ammonium iodide] to `C[N+](C)(Cc1ccc(NC(=O)c2cc3ccccc3o2)cc1)C1CCOCC1` [Cpd 152, {4-[(benzofuran-2-carbonyl)-amino]-benzyl}-dimethyl-(tetrahydro-pyran-4-yl)-ammonium iodide], the IC50 rises from 0.49 µM to 1.6 µM (3.3-fold).

`C[N+](C)(Cc1ccc(NC(=O)C2=Cc3cccc(C(F)(F)F)c3OC2)cc1)C1CCCCC1` [Cpd 134, cyclohexyl-dimethyl-{4-[(8-trifluoromethyl-2H-chromene-3-carbonyl)-amino]-benzyl}-ammonium iodide] and `Cc1cccc2c1OCC(C(=O)Nc1ccc(C[N+](C)(C)C3CCCCC3)cc1)=C2` [Cpd 113, cyclohexyl-dimethyl-{4-[(8-methyl-2H-chromene-3-carbonyl)-amino]-benzyl}-ammonium iodide] are within 1.5-fold of each other in IC50: 0.47 µM for the first, 0.53 µM for the second.

Compared with `Cc1cc(Cl)ccc1C(=O)Nc1ccc(C[N+](C)(C)C2CCOCC2)cc1` [Cpd 32, [4-(4-chloro-2-methyl-benzoylamino)-benzyl]-dimethyl-(tetrahydro-pyran-4-yl)-ammonium iodide], `C[N+](C)(Cc1ccc(NC(=O)c2ccc(Cl)c(C(F)(F)F)c2)cc1)C1CCOCC1` [Cpd 33, [4-(4-chloro-3-trifluoromethyl-benzoylamino)-benzyl]-dimethyl-(tetrahydro-pyran-4-yl)-ammonium iodide] is 8.5-fold lower in IC50: 3.4 µM for the first, 0.4 µM for the second. The second is the more potent here.

Going from `C[N+](C)(Cc1ccc(NC(=O)C2=Cc3c(Cl)cc(Cl)cc3OC2)cc1)C1CCOCC1` [Cpd 100, {4-[(5,7-dichloro-2H-chromene-3-carbonyl)-amino]-benzyl}-dimethyl-(tetrahydro-pyran-4-yl)-ammonium iodide] to `C[N+](C)(Cc1ccc(NC(=O)C2=Cc3cc(Cl)cc(Cl)c3OC2)cc1)C1CCOCC1` [Cpd 102, {4-[(6,8-dichloro-2H-chromene-3-carbonyl)-amino]-benzyl}-dimethyl-(tetrahydro-pyran-4-yl)-ammonium iodide], the IC50 falls from 0.52 µM to 0.19 µM (2.7-fold). The second is the more potent here.

Compared with `Cc1ccc(C(=O)Nc2ccc(C[N+](C)(C)C3CCCCC3)cc2)cc1Cl` [Cpd 80, [4-(3-chloro-4-methyl-benzoylamino)-benzyl]-cyclohexyl-dimethyl-ammonium iodide], `C[N+](C)(Cc1ccc(NC(=O)c2cccc(C(F)(F)F)c2)cc1)C1CCCCC1` [Cpd 74, cyclohexyl-dimethyl-[4-(3-trifluoromethyl-benzoylamino)-benzyl]-ammonium iodide] is 50-fold higher in IC50: 0.03 µM for the first, 1.5 µM for the second.

First: Cc1cc(Cl)cc2c1OCC(C(=O)Nc1ccc(C[N+](C)(C)C3CCSC3)cc1)=C2 (stereo not drawn) [Cpd 120, {4-[(6-chloro-8-methyl-2H-chromene-3-carbonyl)-amino]-benzyl}-dimethyl-(tetrahydro-thiophen-3-yl)-ammonium iodide]
Second: C[N+](C)(Cc1ccc(NC(=O)C2=Cc3cc(Cl)cc(Cl)c3OC2)cc1)C1CCSC1 (stereo not drawn) [Cpd 122, {4-[(6,8-dichloro-2H-chromene-3-carbonyl)-amino]-benzyl}-dimethyl-(tetrahydro-thiophen-3-yl)-ammonium iodide]
The IC50 of the first is 19-fold lower: 0.03 µM for the first, 0.58 µM for the second.

`Cc1ccc2c(c1)C=C(C(=O)Nc1ccc(C[N+](C)(C)C3CCCCC3)cc1)CO2` [Cpd 105, cyclohexyl-dimethyl-{4-[(6-methyl-2H-chromene-3-carbonyl)-amino]-benzyl}-ammonium iodide] and `C[N+](C)(Cc1ccc(NC(=O)C2=Cc3cc(Br)ccc3OC2)cc1)C1CCCCC1` [Cpd 97, {4-[(6-bromo-2H-chromene-3-carbonyl)-amino]-benzyl}-cyclohexyl-dimethyl-ammonium iodide] are within 1.5-fold of each other in IC50: 0.32 µM for the first, 0.45 µM for the second.

`Cc1cc(Cl)cc2c1OCC(C(=O)Nc1ccc(C[N+](C)(C)C3CC4CCC3C4)cc1)=C2` (stereo not drawn) [Cpd 117, bicyclo[2.2.1]hept-2-yl-{4-[(6-chloro-8-methyl-2H-chromene-3-carbonyl)-amino]-benzyl}-dimethyl-ammonium iodide] and `Cc1cc(Cl)cc2c1OCC(C(=O)Nc1ccc(C[N+](C)(C)C3CCCC3)cc1)=C2` [Cpd 119, {4-[(6-chloro-8-methyl-2H-chromene-3-carbonyl)-amino]-benzyl}-cyclopentyl-dimethyl-ammonium iodide] are within 1.5-fold of each other in IC50: 0.12 µM for the first, 0.1 µM for the second.

Going from `C[N+](C)(Cc1ccc(CNC(=O)c2cccc(Br)c2)cc1)C1CCCCC1` [Cpd 2, {4-[(3-bromo-benzoylamino)-methyl]-benzyl}-cyclohexyl-dimethyl-ammonium iodide] to `Cc1cc(Cl)cc2c1OCC(C(=O)Nc1ccc(C[N+](C)(C)C3CCCCCC3)cc1)=C2` [Cpd 118, {4-[(6-chloro-8-methyl-2H-chromene-3-carbonyl)-amino]-benzyl}-cycloheptyl-dimethyl-ammonium iodide], the IC50 falls from 5.5 µM to 0.2 µM (28-fold).

Molecule `Cc1cccc2c1OCC(C(=O)Nc1ccc(C[N+](C)(C)C3CCOCC3)cc1)=C2` [Cpd 112, dimethyl-{4-[(8-methyl-2H-chromene-3-carbonyl)-amino]-benzyl}-(tetrahydro-pyran-4-yl)-ammonium iodide] has an IC50 of 0.15 µM.
